Our source for the IC50 values is US20260015344A1, “PAN-KRAS INHIBITORS” (Mirati Therapeutics, Inc., priority 2022, published 2026).

Test [1] addresses T1, KRas^G12D (Homo sapiens, UniProt P01116, G12D).
T1 construct: corresponding to amino acids 1-169, produced at Accelegan Inc; biotin (biotinylated); purchased Accelegan Inc
Put plainly: KRas Binding Assay (TR-FRET displacement), KRas G12D. Conditions: TR-FRET tracer displacement. The protocol: (§1) This Example illustrates that exemplary compounds of the present invention bind to KRas and are capable of displacing a labeled tracer ligand occupying the KRas binding site. KRas^WT, KRas^G12A, KRas^G12C, KRas^G12D, KRas^G12R, KRas^G12S, KRas^G12V, KRas^G13D, or KRas^Q61H was used in the assay.
(§2) The ability of a compound to bind to KRas was measured using a TR-FRET displacement assay. Biotinylated KRas (corresponding to amino acids 1-169, produced at Accelegan Inc.) was incubated with custom made Cy5 labelled tracer, terbium streptavidin (Cisbio Inc.) and compound (1% DMSO final) in buffer (50 mM HEPES, pH 7.5, 5 mM MgCl2, 0.005% Tween-20 and 1 mM DTT). After a 60-minute incubation at room temperature, the reaction was measured using a BMG LABTECH CLARIO star Plus via TR-FRET. […] The POC values were fit to a 4-parameter IC50 equation and the IC50 value reported.
A general note: TR-FRET usually uses a lanthanide donor and a delayed reading to cut background.

In test [2] the target is T2, KRas^G12A (Homo sapiens, UniProt P01116, G12A).
T2 construct: corresponding to amino acids 1-169, produced at Accelegan Inc; biotin (biotinylated); purchased Accelegan Inc
T2 sequence (P01116 1-169 isoform P01116-2 G12A): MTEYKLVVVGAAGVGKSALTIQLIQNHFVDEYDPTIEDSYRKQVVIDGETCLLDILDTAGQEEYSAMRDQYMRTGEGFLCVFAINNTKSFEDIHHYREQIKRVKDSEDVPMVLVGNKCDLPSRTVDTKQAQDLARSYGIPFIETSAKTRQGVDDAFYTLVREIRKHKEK
Kind of test: KRas Binding Assay (TR-FRET displacement), KRas G12A. The conditions noted are these: TR-FRET tracer displacement. The protocol: as §1, §2

The target in test [3] is T3, KRas^WT (Homo sapiens, UniProt P01116).
T3 construct: corresponding to amino acids 1-169, produced at Accelegan Inc; biotin (biotinylated); purchased Accelegan Inc
T3 sequence (P01116 1-169 isoform P01116-2): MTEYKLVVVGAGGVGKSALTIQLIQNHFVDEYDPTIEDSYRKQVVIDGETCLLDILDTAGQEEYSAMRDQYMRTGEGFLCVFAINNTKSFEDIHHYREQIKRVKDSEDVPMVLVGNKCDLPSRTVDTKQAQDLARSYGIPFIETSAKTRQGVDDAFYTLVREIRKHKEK
Kind of test: KRas Binding Assay (TR-FRET displacement), KRas WT. Conditions: TR-FRET tracer displacement. The protocol: as §1, §2

For test [4], the target named is T4, KRas^G12R (Homo sapiens, UniProt P01116, G12R).
T4 construct: corresponding to amino acids 1-169, produced at Accelegan Inc; biotin (biotinylated); purchased Accelegan Inc
T4 sequence (P01116 1-169 isoform P01116-2 G12R): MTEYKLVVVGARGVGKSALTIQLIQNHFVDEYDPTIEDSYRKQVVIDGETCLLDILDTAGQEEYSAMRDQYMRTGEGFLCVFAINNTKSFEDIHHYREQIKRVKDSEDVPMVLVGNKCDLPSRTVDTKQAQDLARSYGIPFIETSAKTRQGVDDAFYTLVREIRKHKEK
Kind of test: KRas Binding Assay (TR-FRET displacement), KRas G12R. The conditions noted are these: TR-FRET tracer displacement. How it is done: as §1, §2

Test [5] deals with T5, KRas^G13D (Homo sapiens, UniProt P01116, G13D).
T5 construct: corresponding to amino acids 1-169, produced at Accelegan Inc; biotin (biotinylated); purchased Accelegan Inc
T5 sequence (P01116 1-169 isoform P01116-2 G13D): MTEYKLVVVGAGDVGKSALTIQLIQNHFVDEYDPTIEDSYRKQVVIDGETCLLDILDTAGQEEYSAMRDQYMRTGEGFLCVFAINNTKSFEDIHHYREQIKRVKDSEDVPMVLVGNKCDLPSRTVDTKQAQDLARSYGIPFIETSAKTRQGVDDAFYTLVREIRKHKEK
Kind of test: KRas Binding Assay (TR-FRET displacement), KRas G13D. The conditions noted are these: TR-FRET tracer displacement. The protocol: as §1, §2

The target of test [6] is T6, KRas^Q61H (Homo sapiens, UniProt P01116, Q61H).
T6 construct: corresponding to amino acids 1-169, produced at Accelegan Inc; biotin (biotinylated); purchased Accelegan Inc
T6 sequence (P01116 1-169 isoform P01116-2 Q61H): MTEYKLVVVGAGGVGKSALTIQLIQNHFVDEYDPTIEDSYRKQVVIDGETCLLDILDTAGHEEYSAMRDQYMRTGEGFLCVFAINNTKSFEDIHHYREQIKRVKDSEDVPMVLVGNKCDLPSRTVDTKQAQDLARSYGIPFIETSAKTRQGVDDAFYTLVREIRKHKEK
Put plainly: KRas Binding Assay (TR-FRET displacement), KRas Q61H. The conditions noted are these: TR-FRET tracer displacement. How it is done: as §1, §2

In test [7] the target is T7, KRas^G12S (Homo sapiens, UniProt P01116, G12S).
T7 construct: corresponding to amino acids 1-169, produced at Accelegan Inc; biotin (biotinylated); purchased Accelegan Inc
T7 sequence (P01116 1-169 isoform P01116-2 G12S): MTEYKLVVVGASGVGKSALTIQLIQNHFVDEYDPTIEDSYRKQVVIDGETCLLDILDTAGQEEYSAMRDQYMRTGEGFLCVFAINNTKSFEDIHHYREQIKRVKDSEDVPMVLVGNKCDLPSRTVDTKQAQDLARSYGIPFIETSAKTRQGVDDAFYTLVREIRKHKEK
Kind of test: KRas Binding Assay (TR-FRET displacement), KRas G12S. Conditions: TR-FRET tracer displacement. How it is done: as §1, §2

Test [8] addresses T8, KRas^G12V (Homo sapiens, UniProt P01116, G12V).
T8 construct: corresponding to amino acids 1-169, produced at Accelegan Inc; biotin (biotinylated); purchased Accelegan Inc
Put plainly: KRas Binding Assay (TR-FRET displacement), KRas G12V. The conditions noted are these: TR-FRET tracer displacement. How it is done: as §1, §2

Test [9] concerns the target T9, KRas^G12C (Homo sapiens, UniProt P01116, G12C).
T9 construct: corresponding to amino acids 1-169, produced at Accelegan Inc; biotin (biotinylated); purchased Accelegan Inc
Put plainly: KRas Binding Assay (TR-FRET displacement), KRas G12C. Conditions: TR-FRET tracer displacement. The protocol: as §1, §2

In test [10] the test system is KRas-mediated Phosphorylation of ERK in H727 cells. Put plainly: HTRF pERK assay, H727 cells. Conditions: Homo sapiens, NCI-H727, 3 hrs compound incubation, read-out: Inhibition (HTRF IC50 nM) of KRas-mediated Phosphorylation of ERK, H727. Format: cell-based. How it is done: (§3) • Day 1: Seed 6,000 cells/well-25 μl/well in 384-well white solid bottom plate; RPM1_10% FBS.
(§4) • 1. To harvest cells from flask using 0.05% Trypsin/EDTA solution. Add 10 mL of media to stop trypsinizing. Pipette the cells into a conical bottom 50 mL centrifuge tube and centrifuge 5 min×1000 rpm. • 2. Re-suspend the cell pellet in media, take a cell count, and then adjust the cell density using fresh media. • 3. Seed 6,000 cells into cell culture plate with 50 μL media. The • 4. Incubate cell plate overnight in a 37° C., 5% CO2 incubator.
(§5) • 1. Use Tecan to complete the compound addition. Compounds start from 10 uM top, 3-fold dilution, and 10 doses. The final DMSO concentration is 0.8%. Dispensed 0.2 uM Trametinib as Min control. • 2. Incubate cell plate for 3 hrs in the incubator. Detection with Cisbio pERK HTRF Kit • 1. Dilute 1 volume of 4× lysis buffer with 3 volumes of deionized water. Then, add 100× the blocking reagent. Keep lysis buffer on the ice. • 2. At the end of the compound treatment, flick-off the media. • 3. Add 35 μL of lysis buffer per well using a Multidrop Combi. Then place on a plate agitator shaking at 300 rpm at 4° C. for 40 mins. • 4. Make up the HTRF antibody buffer. For each assay plate, mix 50 μL of d2-conjugate antibody with 950 μL of detection buffer. Similarly, mix 50 μL of Cryptate antibody with 950 μL of detection buffer. Then mix the two diluted antibodies together. • 5. Dispense 3.4 μL the antibody buffer to wells of an empty assay plate. Seal the plate and centrifuge plate 30 sec×1000 rpm. • 6. At the end of the 4° C. lysis, centrifuge the lysate plates 3 mins×1500 rpm. • 7. Use the Bravo to transfer 13.6 μL of lysate from cell culture plate to assay plate. Then incubate assay plate for 2 hrs at room temperature. • 8. At the end of incubation, read plate on the Envision after centrifuging plate 30 sec×1000 rpm.

In test [11] the test system is KRas-mediated Phosphorylation of ERK in AsPC-1 cells. Kind of test: HTRF pERK assay, AsPC-1 cells. Format: cell-based. The conditions noted are these: Homo sapiens, ASPC1, 3 hrs compound incubation, read-out: Inhibition (HTRF IC50 nM) of KRas-mediated Phosphorylation of ERK, AsPC-1. How it is done: as §3, §4, §5

T9 sequence (P01116 1-169 isoform P01116-2 G12C): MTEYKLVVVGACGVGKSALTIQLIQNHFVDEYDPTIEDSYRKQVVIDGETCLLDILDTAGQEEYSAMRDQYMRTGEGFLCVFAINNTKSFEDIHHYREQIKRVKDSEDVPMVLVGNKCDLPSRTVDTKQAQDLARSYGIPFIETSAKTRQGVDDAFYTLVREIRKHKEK
T1 sequence (P01116 1-169 isoform P01116-2 G12D): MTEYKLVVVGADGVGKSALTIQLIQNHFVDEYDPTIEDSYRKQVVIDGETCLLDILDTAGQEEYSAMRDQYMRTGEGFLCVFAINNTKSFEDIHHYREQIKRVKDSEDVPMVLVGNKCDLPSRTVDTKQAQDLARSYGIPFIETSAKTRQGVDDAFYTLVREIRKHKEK
T8 sequence (P01116 1-169 isoform P01116-2 G12V): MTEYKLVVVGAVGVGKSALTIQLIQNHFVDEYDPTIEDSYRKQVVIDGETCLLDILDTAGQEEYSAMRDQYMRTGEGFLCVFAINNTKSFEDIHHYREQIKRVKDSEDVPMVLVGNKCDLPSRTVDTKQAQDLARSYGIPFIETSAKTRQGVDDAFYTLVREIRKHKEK

By IC50 is commonly meant the point on the concentration scale where inhibition reaches its midpoint. For `C[C@H](Oc1nc(-c2noc(C3(C)CCCc4sc(N)c(C#N)c43)n2)cc(N2CCCC3(C2)NC(=O)NC3=O)n1)[C@@H]1CCCN1C` (stereo partly drawn) [Example 2, 2-amino-4-(3-(6-(2,4-dioxo-1,3,7-triazaspiro[4.5]decan-7-yl)-2-((S)-1-((S)-1-methylpyrrolidin-2-yl)ethoxy)pyrimidin-4-yl)-1,2,4-oxadiazol-5-yl)-4-methyl-4,5,6,7-tetrahydrobenzo[b]thiophene-3-carbonitrile], the 50% inhibitory concentration (IC50) in test [1] worked out at 18 nM; in test [2], 49 nM; in [3], 14 nM; in test [4], 4 nM; in test [5], 37 nM; in [6], 36 nM. Moreover, the 50% inhibitory concentration (IC50) in test [7] is 41 nM; in test [8], 6 nM; in test [9] it was 54 nM.

`C[C@H](Oc1nc(-c2cc(C3(C)CCCc4sc(N)c(C#N)c43)sn2)cc(N2CCC[C@@](C)(O)C2)n1)[C@@H]1CCCN1C` (stereo partly drawn) [Example 7, 2-amino-4-(3-(6-((R)-3-hydroxy-3-methylpiperidin-1-yl)-2-((S)-1-((S)-1-methylpyrrolidin-2-yl)ethoxy)pyrimidin-4-yl)isothiazol-5-yl)-4-methyl-4,5,6,7-tetrahydrobenzo[b]thiophene-3-carbonitrile]: the half-maximal inhibitory concentration (IC50) in test [1] worked out at 127 nM; in test [2] it was 132 nM; in [3] it was 129 nM; in test [10], 4470 nM; in test [4] it was 23 nM; in [5], 128 nM. Also, the IC50 in test [6] is 170 nM; in test [11] it was 5840 nM; in test [7], 158 nM; in test [8], 46 nM; in test [9], 174 nM.

Regarding `C[C@H](Oc1nc(-c2cc(C3(C)CCCc4sc(N)c(C#N)c43)sn2)cc(N2C[C@H]3CC[C@@H](C2)N3)n1)[C@@H]1CCCN1C` (stereo partly drawn) [Example 9, 4-(3-(6-((1R,5S)-3,8-diazabicyclo[3.2.1]octan-3-yl)-2-((S)-1-((S)-1-methylpyrrolidin-2-yl)ethoxy)pyrimidin-4-yl)isothiazol-5-yl)-2-amino-4-methyl-4,5,6,7-tetrahydrobenzo[b]thiophene-3-carbonitrile], the half-inhibitory concentration (IC50) in test [1] is 36 nM; in test [2] it was 3080 nM; in [3], 566 nM; in test [10], not below 10000 nM; in [4] it was 1340 nM; in test [5], 1320 nM. Further, the IC50 in test [6] came to 2290 nM; in [11], 3010 nM; in test [7] it was 3420 nM; in test [8], 1040 nM; in test [9], 3490 nM.

Regarding `C[C@H](Oc1nc(-c2cc(C3(C)CCCc4sc(N)c(C#N)c43)sn2)cc(N2CCCC3(C2)NC(=O)NC3=O)n1)[C@@H]1CCCN1C` (stereo partly drawn) [Example 11, 2-amino-4-(3-(6-(2,4-dioxo-1,3,7-triazaspiro[4.5]decan-7-yl)-2-((S)-1-((S)-1-methylpyrrolidin-2-yl)ethoxy)pyrimidin-4-yl)isothiazol-5-yl)-4-methyl-4,5,6,7-tetrahydrobenzo[b]thiophene-3-carbonitrile], the half-inhibitory concentration (IC50) in test [1] came out at 93 nM; in test [2], 240 nM; in [3], 326 nM; in [4], 34 nM; in test [5], 190 nM; in test [6] it was 263 nM. The IC50 is 188 nM in test [7], 76 nM in test [8] and 262 nM in [9].

`C[C@H](Oc1nc(-c2cc(C3(C)CCCc4sc(N)c(C#N)c43)sn2)cc(N2CCCn3nc(C(=O)N(C)C)cc3C2)n1)[C@@H]1CCCN1C` (stereo partly drawn) [Example 12, 5-(6-(5-(2-amino-3-cyano-4-methyl-4,5,6,7-tetrahydrobenzo[b]thiophen-4-yl)isothiazol-3-yl)-2-((S)-1-((S)-1-methylpyrrolidin-2-yl)ethoxy)pyrimidin-4-yl)-N,N-dimethyl-5,6,7,8-tetrahydro-4H-pyrazolo[1,5-a][1,4]diazepine-2-carboxamide]: the IC50 in [1] came out at 623 nM; in test [2], 551 nM; in [3], 417 nM; in test [4] it was 156 nM; in test [5], 584 nM; in test [6] it was 533 nM. For the same compound, the 50% inhibitory concentration (IC50) in [7] was determined as 596 nM; in test [8] it was 163 nM; in test [9], 457 nM.

`C[C@H](Oc1nc(-c2noc(C3(C)CCCc4sc(N)c(C#N)c43)n2)cc(N2CCCC3(CNS(=O)(=O)N3)C2)n1)[C@@H]1CCCN1C` (stereo partly drawn) [Example 4, 2-amino-4-(3-(6-(2,2-dioxido-2-thia-1,3,7-triazaspiro[4.5]decan-7-yl)-2-((S)-1-((S)-1-methylpyrrolidin-2-yl)ethoxy)pyrimidin-4-yl)-1,2,4-oxadiazol-5-yl)-4-methyl-4,5,6,7-tetrahydrobenzo[b]thiophene-3-carbonitrile]: the IC50 is 6 nM in [1]; 29 nM in test [2]; 10 nM in [3]; 4 nM in test [4]; 24 nM in test [5]; 26 nM in test [6]. Also, the IC50 in [7] stood at 23 nM; in test [8], 5 nM; in test [9] it was 26 nM.

`C[C@H](Oc1nc(-c2cc(C3(C)CCCc4sc(N)c(C#N)c43)sn2)cc(N2C[C@@H]3C[C@H](C2)[C@H](O)C3)n1)[C@@H]1CCCN1C` (stereo partly drawn) [Example 8, 2-amino-4-(3-(6-((1R,5R,6R)-6-hydroxy-3-azabicyclo[3.2.1]octan-3-yl)-2-((S)-1-((S)-1-methylpyrrolidin-2-yl)ethoxy)pyrimidin-4-yl)isothiazol-5-yl)-4-methyl-4,5,6,7-tetrahydrobenzo[b]thiophene-3-carbonitrile]: the IC50 in test [1] was 505 nM; in [2], 204 nM; in test [3], 160 nM; in [10] it was 3380 nM; in [4], 59 nM; in test [5], 167 nM. In addition, the IC50 in test [6] stood at 224 nM; in test [11], 7400 nM; in test [7], 296 nM; in [8], 96 nM; in test [9], 275 nM.

With `C[C@H](Oc1nc(-c2noc(C3(C)CCCc4sc(N)c(C#N)c43)n2)cc(N2C[C@@H]3C[C@H](C2)[C@H](O)C3)n1)[C@@H]1CCCN1C` (stereo partly drawn) [Example 5, 2-amino-4-(3-(6-((1R,5R,6R)-6-hydroxy-3-azabicyclo[3.2.1]octan-3-yl)-2-((S)-1-((S)-1-methylpyrrolidin-2-yl)ethoxy)pyrimidin-4-yl)-1,2,4-oxadiazol-5-yl)-4-methyl-4,5,6,7-tetrahydrobenzo[b]thiophene-3-carbonitrile], the IC50 worked out at 413 nM in test [1]; 250 nM in [2]; 69 nM in test [3]; 38 nM in test [4]; 269 nM in test [5]; 233 nM in test [6]. In addition, the results for the IC50 in [7], in test [8] and in [9] were 265 nM, 62 nM and 313 nM, respectively.
